Data reported in ChEMBL document CHEMBL1133267, “The total synthesis of piclavines A1-4 and their biological evaluation” (Bioorg Med Chem Lett, 2000).
In brackets after ≈: the same amount, converted by molar mass. Activity calls are given as the source filed them. The rule behind the calls is not given here.

Assays:
Streptococcus pneumoniae [1] = test: Compound was evaluated for antibacterial activity against Streptococcus pneumoniae; weak activity; format: functional, organism-based
Vero = test: Compound was evaluated for inhibition of cell growth of Vero cells; format: functional; conditions: Chlorocebus sabaeus
Influenza A virus = test: Compound was evaluated for antiviral activity against Influenza virus A/PR/8; format: functional, organism-based
MDCK = test: Compound was evaluated for inhibition of MDCK cell growth; format: functional; conditions: Canis lupus familiaris
Candida albicans = test: Compound was evaluated for inhibitory activity on Candida albicans; active; format: functional, organism-based
Human alphaherpesvirus 1 = test: Compound was evaluated for antiviral activity against Herpes simplex virus type 1; ND means Not detected owing to toxicity; format: functional, organism-based
Streptococcus pneumoniae [2] = test: Compound was evaluated for antibacterial activity against Streptococcus pneumoniae; IA means Inactive; format: functional, organism-based

SMILES	Activity (Streptococcus pneumoniae [1])	CC50 (Vero)	IC50 (Influenza A virus)	CC50 (MDCK)	Activity (Candida albicans)	IC50 (Human alphaherpesvirus 1)	Activity (Streptococcus pneumoniae [2])
CCCCCCC/C=C\C[C@H]1CCC[C@@H]2CCCN21	weak activity	7.67 mg/L (≈ 29.1 µM)	3.72 mg/L (≈ 14.1 µM)	9.28 mg/L (≈ 35.2 µM)	Active	Not detected	–
CCCCCCC/C=C/C[C@@H]1CCC[C@@H]2CCCN21	–	42.3 mg/L (≈ 161 µM)	1.45 mg/L (≈ 5.5 µM)	20.1 mg/L (≈ 76.3 µM)	–	Not detected	inactive
CCCCCCC/C=C/C[C@H]1CCC[C@@H]2CCCN21	weak activity	9.18 mg/L (≈ 34.8 µM)	4.84 mg/L (≈ 18.4 µM)	8.92 mg/L (≈ 33.9 µM)	–	Not detected	–
CCCCCCC/C=C\C[C@@H]1CCC[C@@H]2CCCN21	–	40.9 mg/L (≈ 155 µM)	4.2 mg/L (≈ 15.9 µM)	17.1 mg/L (≈ 64.9 µM)	–	Not detected	inactive
